We go through ten molecules from US5272175A, “Substituted tyrosyl diamide compounds” (priority 1992, dated 1993).

Each structure is given as a SMILES string. Where a name gives a salt, the structure may show the parent alone. Read-outs that look alike come from different tables or passages of the source.

For assay [1], the system named is mice. Briefly: Writhing Assay (phenylbenzoquinone (PBQ)-induced writhing), analgesic activity. The conditions noted are these: Mus musculus, 50% of mice with writhes <= half control median. It counts as in vivo, CD Charles River mice. The source says: The "Writhing Assay" is one of the most widely-used experimental procedures for measuring the analgesic activity of different narcotic and nonnarcotic analgesic agents, and involves the continuous, chemically-induced pain of visceral origin to an animal, such as a mouse or rat. [Gyires et al., Arch. int. Pharmacodyn, 267, 131-140 (1984); C. Vander Wende et al., Fed. Proc., 15, 494 (1956); Koster et al., Fed. Proc., 18, 412 (1959); and Witken et al., J. Pharmacol. Exp. Ther., 133, 400-408 (1961).] Chemicals which may be used to induce this pain include phenylbenzoquinone (PBQ) and acetic acid. As a result of the chemical irritation to the animal, a characteristic stretching and writhing of the animal (dorsiflexion of the animal's back, extension of its hindlimbs and the strong contraction of its abdominal musculature) will generally occur. […] Drugs which reduce the number of writhes of the animal appear to restore the normal nociceptive threshold of the animal.
This assay was conducted generally in the manner described by R. I. Taber, "Predictive Value of Analgesic Assays in Mice and Rats," Advances in Biochemical Phychopharmacology, 8, 191 (1974).
Two hundred CD Charles River mice, weighing 20 to 30 grams, were used in this assay.
Twenty-five minutes after subcutaneous administration, and fifteen minutes after oral administration, to the mice of 10 mg per kilogram (mpk) of body weight of either a tyrosyl diamide compound of the invention (hereinafter "test compound"), or of the Jacobson Compound, 0.1 mL per 10 g of body weight of a 0.025% w/v solution of phenylbenzoquinone (PBQ) was injected intraperitoneally into each mouse. Some mice were given saline in place of a test compound, or of the Jacobson Compound, and were used as a control group.
Five minutes later, each mouse was individually placed into a glass beaker for observation, and the number of writhes occurring during the following ten-minute period was counted.
A compound was considered to be "active" (to have produced analgesia in a mouse) if, after the administration of 10 mg per kilogram (mpk) of body weight of the compound to the mouse, the number of writhes elicited by a mouse injected with PBQ was equal to, or less than, one-half the median number of writhes recorded for the saline-treated control group of mice that day, as described by R. I. Taber, supra.
The standard initial screening dose of a test compound employed in this assay was 10 mpk […] for both routes of administration. If this initial screening dose of the compound produced analgesia in seven of ten mice, then the effect of additional doses of the compound on the writhing response was evaluated, and then the ED50 value (that dose of a compound which produced analgesia in 50% of the mice to which the compound was administered) was calculated. A maximum likelihood function was used to determine the ED50 value. (The slopes of the dose-response curves for the compounds analyzed were compared as described by Tallarida and Murray, Manual of Pharmacologic Calculations, Page 1 (Springer Verlag, N.Y., 1981)).
(In general: In writhing tests, fewer writhes than in controls are read as antinociception.)

In a further assay the target is δ opioid receptors (Rattus norvegicus, UniProt P33533). Briefly: Opiate Binding Assay, displacement of 3[H]-DSLET from δ receptors. The conditions noted are these: for Mean IC50 μ/δ Ratio: ratio of mean IC50 values for μ and δ, above 1.0 = more δ specific.
Chain of δ opioid receptors (P33533 whole entry): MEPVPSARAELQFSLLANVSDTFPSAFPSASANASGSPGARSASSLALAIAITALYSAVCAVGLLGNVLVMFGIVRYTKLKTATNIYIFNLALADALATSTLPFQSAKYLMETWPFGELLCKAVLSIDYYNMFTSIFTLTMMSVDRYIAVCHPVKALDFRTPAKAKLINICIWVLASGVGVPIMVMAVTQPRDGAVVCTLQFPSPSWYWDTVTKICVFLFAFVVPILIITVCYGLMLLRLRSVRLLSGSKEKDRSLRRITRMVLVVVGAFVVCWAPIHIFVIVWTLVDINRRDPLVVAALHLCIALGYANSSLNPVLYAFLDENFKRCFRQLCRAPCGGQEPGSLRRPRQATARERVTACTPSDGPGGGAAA
For the next assay, the target named is μ opioid receptors (Rattus norvegicus, UniProt P33535). Briefly: Opiate Binding Assay, displacement of 3[H]-DAMPGO from μ receptors.
Chain of μ opioid receptors (P33535 whole entry): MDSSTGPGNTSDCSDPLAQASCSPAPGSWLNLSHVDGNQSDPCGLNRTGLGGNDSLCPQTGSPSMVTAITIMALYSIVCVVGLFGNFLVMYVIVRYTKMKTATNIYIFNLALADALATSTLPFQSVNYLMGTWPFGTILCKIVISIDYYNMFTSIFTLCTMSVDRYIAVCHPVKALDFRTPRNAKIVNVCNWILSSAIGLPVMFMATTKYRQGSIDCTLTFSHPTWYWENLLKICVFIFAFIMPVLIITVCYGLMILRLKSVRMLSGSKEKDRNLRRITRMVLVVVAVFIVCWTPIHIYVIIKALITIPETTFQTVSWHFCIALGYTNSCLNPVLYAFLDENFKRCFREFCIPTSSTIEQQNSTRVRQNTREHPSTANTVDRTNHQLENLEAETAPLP
Assay [2] deals with mice. The conditions noted are these: general statement on both tests; cited from earlier work.
Assay [3] concerns mice. The conditions noted are these: general statement on both tests; cited from earlier work. This is another data set of the same source.
The mark [4] stands for this setting: sc, 25 min, subcutaneous, PBQ i.p. 25 min after compound, read-out: ED50, Writhing Assay, Subcutaneous (S.C.).

As a reminder, the ED50 is the dose that gives a 50% effect, or the effect in half of the subjects. Usually IC50 stands for the concentration that inhibits the measured activity by half. As for `Cc1cc(O)cc(C)c1C[C@H](N)C(=O)NC(C)(C)CNC(=O)[C@H](Cc1ccccc1)NC(=O)OCc1ccccc1` [Example 10, Phenylmethyl[1S-[[2-[[2S-amino-3-(4-hydroxy-2,6-dimethylohenyl)-1-oxopropyl]amino]-2-methylpropyl]-amino]carbonyl]-2-phenylethyl]carbamate, monohydrochloride], the ED50 in the assay with mice [1] (setting [4]) is 5 mg/kg. Moreover, at δ opioid receptors, the IC50 was found to be 4 nM and the “Mean IC50 μ/δ Ratio” value stood at 0.8. The molecule further showed an IC50 on μ opioid receptors of 3.3 nM.

Consider `CC(=O)N[C@@H](Cc1ccccc1)C(=O)NCC(C)(C)NC(=O)[C@@H](N)Cc1c(C)cc(OC(C)=O)cc1C` [Example 16, αS-(acetylamino)-N-2-[2-[[4-(acetyloxy)-2,6-dimethylphenyl]-2S-amino-1-oxopropyl]amino]-2-methylpropyl]benzenepropanamide, hydrochloride], for which the 50% effective dose (ED50) in the assay on mice [1] (setting [4]) is 5 mg/kg. For the same molecule, the “Mean IC50 μ/δ Ratio” value on δ opioid receptors was found to be 0.7. Also, the IC50 at δ opioid receptors (read-out: Mean IC50 Value, δ, rat forebrain membranes, 3[H]-DSLET 1.0 nM, 37° C., pH 7.4) was 0.78 nM; on μ opioid receptors (read-out: Mean IC50 Value, μ, rat forebrain membranes, 3[H]-DAMPGO 2.0 nM, 37° C., pH 7.4), 0.51 nM.

For `CC(=O)N[C@@H](CCc1ccccc1)C(=O)NCC(C)(C)NC(=O)[C@@H](N)Cc1c(C)cc(O)cc1C` [Example 18, αS-(acetylamino)-N-[2-[[2S-amino-3-(4-hydroxy-2,6-dimethylohenyl)-1-oxopropyl]amino]-2-methyloropyl]-benzenebutanamide, hydrochloride], the ED50 in the assay with mice [1] (setting [4]) turned out to be 5 mg/kg. For the same molecule, at δ opioid receptors, the 50% inhibitory concentration (IC50) is 4.7 nM and the “Mean IC50 μ/δ Ratio” value turned out to be 0.07. On μ opioid receptors, the IC50 was 0.33 nM.

Take `CNC(=O)N[C@@H](Cc1ccccc1)C(=O)NCC(C)(C)NC(=O)[C@@H](N)Cc1c(C)cc(O)cc1C` [Example 37, αS-amino-N-1,1-dimethyl-2-[2S-[[(methylamino)carbonyl]amino]-1-oxo-3-phenylpropyl]amino]ethyl]-4-hydroxy-2,6-dimethylbenzeneoropanamide, monohydrochloride]: the ED50 in the assay on mice [1] (setting [4]) came out at 5 mg/kg. Also, the IC50 on δ opioid receptors was around 2 nM; on μ opioid receptors, below 10 nM.

For `CC(=O)N[C@@H](Cc1c(C)cccc1C)C(=O)NCCNC(=O)[C@@H](N)Cc1c(C)cc(O)cc1C` [Example 52, αS-(Acetylamino)-N-[2-[[2S-amino-3-(4-hydroxy-2,6-dimethylphenyl)-1-oxopropyl]amino]ethyl]-2,6-dimethylbenzeneoropanamide, hydrochloride], in the assay on mice [1] (setting [4]), the ED50 came to 5 mg/kg. For the same molecule, the figures for the IC50 at δ opioid receptors and at μ opioid receptors were 32 nM and 0.6 nM, respectively.

As for `CC(=O)N[C@@H](Cc1ccccc1)C(=O)N1CCC(NC(=O)[C@@H](N)Cc2c(C)cc(O)cc2C)C1` (stereo partly drawn) [Example 56, N-1-[2S-(Acetylamino)-1-oxo-3-phenylpropyl]-3-pyrrolidinyl]-αS-amino-4-hydroxy-2,6-dimethylbenzenepropanamide, monohydrochloride], the IC50 stood at 50.3 nM at δ opioid receptors and 85.5 nM on μ opioid receptors. Also, the “Mean IC50 μ/δ Ratio” value at δ opioid receptors was 1.7.

On to `Cc1cc(O)cc(C)c1C[C@H](N)C(=O)NC(C)(C)CNC(=O)[C@H](Cc1ccccc1)NC(=O)NS(=O)(=O)c1ccccc1` [Example 59, S-amino-N-[1,1-dimethyl-2-[[1-oxo-3-phenyl-2S-[[[(phenylsulfonyl)amino]carbonyl]amino]propyl]amino]ethyl]-4-hydroxy-2,6-dimethylbenzeneoropanamide, monohydrochloride], for which, at δ opioid receptors, the IC50 came out at 7.3 nM and the “Mean IC50 μ/δ Ratio” value was found to be 0.4. Further, the IC50 at μ opioid receptors was 3.2 nM.

Take `CC(=O)N[C@@H](Cc1ccccc1)C(=O)NCC(C)(C)NC(=O)[C@@H](N)Cc1ccc(O)cc1` [Jacobson Compound, reference compound]: the ED50 in the assay with mice [1] (0.25 h, oral, PBQ i.p. 15 min after compound, read-out: ED50, Writhing Assay, Oral (p.o.)) is 4.1 mg/kg; in the assay on mice [1] (setting [4]) it was 1.6 mg/kg. Also, the values for the IC50 on δ opioid receptors and at μ opioid receptors were 2 nM and 0.6 nM, respectively. In addition, the “Mean IC50 μ/δ Ratio” value at δ opioid receptors was 0.3.

With `Cc1cc(CC(=O)O)n(C)c1C(=O)c1ccc(Cl)cc1` [Zomax], the “activity in Tail Flick Assay” value in the assay on mice [2] is recorded as “little activity”. The “activity in Hot Plate Assay” value with mice [3] is recorded as “little activity”.

With `CC(=O)Oc1ccccc1C(=O)O` [aspirin], in the assay on mice [2], the “activity in Tail Flick Assay” value is “little activity”. Moreover, the “activity in Hot Plate Assay” value in the assay on mice [3] was “little activity”.
